The record followed here is patent US8642801B2 (BHI Limited Partnership, priority 2003, dated 2014).

SMILES strings stand for the structures.

The assay has as its target T1, Aβ40 and Aβ42 peptides in plasma and brain of TgCRND8 mice (Homo sapiens, UniProt P05067).
T1 construct: ELISA using Human Aβ40 and Aβ42 Fluorometric ELISA kits from Biosource; from tissue; host or cells: plasma and brain homogenate of TgCRND8 transgenic mice (hAPP transgene)
The assay can be described thus: Long term treatment in adult transgenic CRND8 mice overexpressing βAPP: Aβ levels in plasma and brain by ELISA. The assay is classed as in vivo, Mouse. To be noted: BX subcutaneous, BW and BZ oral, vs vehicle or methylcellulose control. The source says: Transgenic mice, TgCRND8, as those used in the short term treatment, overexpress a human APP gene with the Swedish and Indiana mutations leading to the production of high levels of the amyloid peptides and to the development of an early-onset, aggressive development of brain amyloidosis. The high levels of Aβ peptides and the relative overabundance of Aβ42 compared to Aβ40 are believed to be associated with the severe and early degenerative pathology observed. The pattern of amyloid deposition, presence of dystrophic neuritis, and cognitive deficit has been well documented in this transgenic mouse line. The levels of Aβ peptides in the brain of these mice increase dramatically as the animals age. While the total amyloid peptide levels increase from ˜1.6×10^5 pg/g of brain to ˜3.8×10^6 between 9 and 17 weeks of age.
The long-term therapeutic effects of compounds of the present invention on cerebral amyloid deposition and β-amyloid (Aβ) levels in the plasma and in the brains of transgenic mice, TgCRND8, expressing the human amyloid precursor protein (hAPP) was studied. These compounds were administered over an 8 or 16 week period at the end of which the levels of Aβ peptides in the plasma and brain of TgCRND8 animals were determined. The goal of this study was to evaluate the efficacy of the compounds at modulating the progression of the amyloidogenic process in the brain and in the plasma of a transgenic mouse model of Alzheimer's disease (AD)
The mice used in the study consisted of animals bearing one copy of the hAPP gene (+/−) from the 2nd and 3rd generation progenies (N2 and N3) derived from backcrosses from TgCRND8.FVB(N2)AJ(N3) with B6AF1/J hybrid animals. N1=TgCRND8.FVB(N2)AJ(N3)×B6AF1/J N2=TgCRND8.FVB(N2)AJ(N3).B6AF1/J(N1)×B6AF1/J N3=TgCRND8.FVB(N2)AJ(N3).B6AF1/J(N2)×B6AF1/a
The following abbreviations are used to designate these animals in the present study: TgCRND8.B6AF1/J(N2); TgCRND8.B6AF1/J(N3). Male and female transgenic mice were given daily subcutaneous (compound BX) or oral (compounds BW and BZ) administrations of the appropriate compounds for 8 or 16 weeks.
Baseline animals consisted of 9±1 week old naive TgCRND8.B6AF1/J animals from the 2nd and 3rd generations. These mice were used to determine the extent of cerebral amyloid deposits and Aβ levels in the plasma and brain of naive transgenic animals at the initiation of treatment.
Starting at 9 weeks of age (±1 week) animals received daily administration of their respective treatment for a period of 8 or 16 weeks, at a dose of 30 or 100 mg/kg at 10 ml/kg. The route of administration was subcutaneous for water-soluble compounds (Compound BX) and oral for compounds solubilized in methylcellulose 1% (MC 1%) (Compounds BW and BZ). At the end of the treatment periods, plasma and perfused brains were collected for quantification of Aβ levels.
Animal health was monitored, samples were collected and Aβ levels were measured as described above in the short term treatment study. Compounds were scored based on their ability to modulate levels of Aβ peptides in the plasma and the cerebral soluble/insoluble levels in the brain. Levels of Aβ observed in the plasma and brain of treated animals were compared to that of vehicle-treated (water) or methylcellulose-treated control groups and ranked according to the strength of the pharmacological effect. Increases in the levels of Aβ peptides are indicated using “+” symbols, while decreases in the levels of Aβ peptides are indicated using “−” symbols. The strongest effects are recorded as “+++” or “−−−” while the weakest are shown as “+” or “−”.
Specifically, increases in the levels of Aβ (relative to vehicle treated control) of 5 to 14% are scored as “+”; increases of 15 to 29% are scored as “++”; and increases of 30% or higher are scored as “+++”. Decreases in the levels of Aβ of 5 to 14% are scored as “−”; decreases of 15 to 29% are scored as “−−”; and decreases of 30% or more are scored as “−−−”. […]

As to `O=S(=O)(O)CCCNC12CC3CC(CC(C3)C1)C2` [BW, 3-(1-adamantyl)amino-1-propanesulfonic acid], under “30 mg/kg daily, 8 wks”, the “Brain Abeta40 insoluble” value is “−− (decreases of 15 to 29% are scored as “−−”)”, the “Brain Abeta40 soluble” value was “− (Decreases in the levels of Aβ of 5 to 14% are scored as “−”)”, the “Brain Abeta42 insoluble” value is on record as 0 (changes of 4% or less in either direction are scored as “0”) and the “Brain Abeta42 soluble” value was “−− (decreases of 15 to 29% are scored as “−−”)”. In addition, for the setting “30 mg/kg daily, 8 wks”, the “Plasma Abeta40” value was “−−− (decreases of 30% or more are scored as “−−−”)” and the “Plasma Abeta42” value is on record as “−−− (decreases of 30% or more are scored as “−−−”)”. Also, under “30 mg/kg daily, 16 wks”, the “Brain Abeta40 insoluble” value is listed as “++ (increases of 15 to 29% are scored as “++”)”, the “Brain Abeta40 soluble” value is “+ (increases in the levels of Aβ (relative to vehicle treated control) of 5 to 14% are scored as “+”)”, the “Brain Abeta42 insoluble” value is reported as “+ (increases in the levels of Aβ (relative to vehicle treated control) of 5 to 14% are scored as “+”)” and the “Brain Abeta42 soluble” value is listed as “− (Decreases in the levels of Aβ of 5 to 14% are scored as “−”)”. Under “30 mg/kg daily, 16 wks”, the “Plasma Abeta40” value is “−− (decreases of 15 to 29% are scored as “−−”)” and the “Plasma Abeta42” value was “−− (decreases of 15 to 29% are scored as “−−”)”. Also, where the note is “100 mg/kg daily, 8 wks”, the “Brain Abeta40 insoluble” value is reported as “−−− (decreases of 30% or more are scored as “−−−”)”, the “Brain Abeta40 soluble” value was “−− (decreases of 15 to 29% are scored as “−−”)”, the “Brain Abeta42 insoluble” value is reported as “−−− (decreases of 30% or more are scored as “−−−”)” and the “Brain Abeta42 soluble” value is “−− (decreases of 15 to 29% are scored as “−−”)”. Further, under “100 mg/kg daily, 8 wks”, the “Plasma Abeta40” value was “− (Decreases in the levels of Aβ of 5 to 14% are scored as “−”)” and the “Plasma Abeta42” value is “− (Decreases in the levels of Aβ of 5 to 14% are scored as “−”)”. For the same compound, for the setting “100 mg/kg daily, 16 wks”, the “Brain Abeta40 insoluble” value is “+ (increases in the levels of Aβ (relative to vehicle treated control) of 5 to 14% are scored as “+”)”, the “Brain Abeta40 soluble” value was “++ (increases of 15 to 29% are scored as “++”)”, the “Brain Abeta42 insoluble” value was “++ (increases of 15 to 29% are scored as “++”)” and the “Brain Abeta42 soluble” value is reported as “+ (increases in the levels of Aβ (relative to vehicle treated control) of 5 to 14% are scored as “+”)”. Moreover, where the note is “100 mg/kg daily, 16 wks”, the “Plasma Abeta40” value was “− (Decreases in the levels of Aβ of 5 to 14% are scored as “−”)” and the “Plasma Abeta42” value was “− (Decreases in the levels of Aβ of 5 to 14% are scored as “−”)”.

`O=S(=O)(O)CCCNC1C2CC3CC(C2)CC1C3` (stereo not drawn) [BZ, 3-(2-adamantyl)amino-1-propanesulfonic acid]: under “30 mg/kg daily, 8 wks”, the “Brain Abeta40 insoluble” value is listed as “−− (decreases of 15 to 29% are scored as “−−”)”, the “Brain Abeta40 soluble” value was 0 (changes of 4% or less in either direction are scored as “0”), the “Brain Abeta42 insoluble” value is recorded as “−−− (decreases of 30% or more are scored as “−−−”)” and the “Brain Abeta42 soluble” value is 0 (changes of 4% or less in either direction are scored as “0”). In addition, under “30 mg/kg daily, 8 wks”, the “Plasma Abeta40” value is reported as 0 (changes of 4% or less in either direction are scored as “0”) and the “Plasma Abeta42” value is reported as 0 (changes of 4% or less in either direction are scored as “0”). Moreover, for the setting “30 mg/kg daily, 16 wks”, the “Brain Abeta40 insoluble” value is given as “+ (increases in the levels of Aβ (relative to vehicle treated control) of 5 to 14% are scored as “+”)”, the “Brain Abeta40 soluble” value was 0 (changes of 4% or less in either direction are scored as “0”), the “Brain Abeta42 insoluble” value was 0 (changes of 4% or less in either direction are scored as “0”) and the “Brain Abeta42 soluble” value is reported as “+ (increases in the levels of Aβ (relative to vehicle treated control) of 5 to 14% are scored as “+”)”. Further, for the setting “30 mg/kg daily, 16 wks”, the “Plasma Abeta40” value was 0 (changes of 4% or less in either direction are scored as “0”) and the “Plasma Abeta42” value is “+ (increases in the levels of Aβ (relative to vehicle treated control) of 5 to 14% are scored as “+”)”. Where the note is “100 mg/kg daily, 8 wks”, the “Brain Abeta40 insoluble” value is listed as 0 (changes of 4% or less in either direction are scored as “0”), the “Brain Abeta40 soluble” value is given as “++ (increases of 15 to 29% are scored as “++”)”, the “Brain Abeta42 insoluble” value is reported as “− (Decreases in the levels of Aβ of 5 to 14% are scored as “−”)” and the “Brain Abeta42 soluble” value is reported as 0 (changes of 4% or less in either direction are scored as “0”). Besides, for the setting “100 mg/kg daily, 8 wks”, the “Plasma Abeta40” value is “++ (increases of 15 to 29% are scored as “++”)” and the “Plasma Abeta42” value is “+++ (increases of 30% or higher are scored as “+++”)”. Further, for the setting “100 mg/kg daily, 16 wks”, the “Brain Abeta40 insoluble” value was 0 (changes of 4% or less in either direction are scored as “0”), the “Brain Abeta40 soluble” value is reported as “−− (decreases of 15 to 29% are scored as “−−”)”, the “Brain Abeta42 insoluble” value is “+ (increases in the levels of Aβ (relative to vehicle treated control) of 5 to 14% are scored as “+”)” and the “Brain Abeta42 soluble” value was “− (Decreases in the levels of Aβ of 5 to 14% are scored as “−”)”. Besides, under “100 mg/kg daily, 16 wks”, the “Plasma Abeta40” value is “++ (increases of 15 to 29% are scored as “++”)” and the “Plasma Abeta42” value is given as “++ (increases of 15 to 29% are scored as “++”)”.
